Among the data in patent US8901160B2, “Heparanase activity inhibitor” (Shiseido Company, Ltd., priority 2009, dated 2014) are Heparanase inhibition rate values, retold here.

The assay addresses T1, heparanase (Homo sapiens, UniProt Q9Y251).
T1 construct: the supernatant was recovered as cell extract; endogenous in cells; host or cells: A431 cells (human epithelial carcinoma), Triton X-100 lysate supernatant
T1 sequence (Q9Y251 158-543 limits assumed): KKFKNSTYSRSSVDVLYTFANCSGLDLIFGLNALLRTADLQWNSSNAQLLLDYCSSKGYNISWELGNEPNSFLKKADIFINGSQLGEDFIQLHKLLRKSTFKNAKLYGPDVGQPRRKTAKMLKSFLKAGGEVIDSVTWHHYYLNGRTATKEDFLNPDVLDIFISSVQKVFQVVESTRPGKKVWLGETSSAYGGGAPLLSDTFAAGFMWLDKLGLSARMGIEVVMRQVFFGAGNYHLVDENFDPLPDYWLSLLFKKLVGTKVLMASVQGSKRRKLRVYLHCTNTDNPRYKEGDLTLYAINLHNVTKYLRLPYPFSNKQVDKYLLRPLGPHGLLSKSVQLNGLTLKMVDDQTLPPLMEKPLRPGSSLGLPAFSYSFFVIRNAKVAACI
T1 sequence (Q9Y251 36-109 limits assumed): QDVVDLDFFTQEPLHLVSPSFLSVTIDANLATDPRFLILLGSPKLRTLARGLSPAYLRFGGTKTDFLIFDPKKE
The assay is described as follows: Evaluation based on heparanase activity inhibition rate (A431 cell extract, biotinylated heparan sulfate-immobilized plate). The assay is classed as biochemical. The note with it: 37° C., 2 hours. The procedure: In the primary evaluation using heparanase activity as the index, as described in detail in the examples which follow, biotinylated heparan sulfate was immobilized in 96 wells, after which heparanase was allowed to act in the presence of a drug, and the amount of reduction in biotinylated heparan sulfate was used to evaluate the heparanase activity by the reaction with peroxidase-labeled avidin and coloration.
A431 cells (human epithelial carcinoma cells) were cultured in 10% serum-containing DMEM (Dulbecco's modified Eagle medium). The cultured cells were solubilized in lysis buffer (50 mM Tris, 0.5% TritonX-100, 0.15 M sodium chloride, pH 4.5) and collected with a scraper, and then pipetted and allowed to stand on ice for 30 minutes. This was followed by centrifugation at 10,000 rpm for 10 minutes to remove the insoluble portion, and the supernatant was recovered as cell extract. The amount of protein in the cell extract was measured with a BCA protein assay kit (BCA Protein Assay Kit, PIERCE, CA46141).
The A431 cell extract was then diluted to 500 μg/mL with assay buffer (50 mM HEPES, 50 mM sodium acetate, 150 mM sodium chloride, 9 mM calcium chloride, 0.1% BSA). […] After further rinsing 3 times with PBS-T, TMB reagent (BIO-RAD, 172-1066) was added at 100 μL/well and reacted therewith, the reaction was terminated with 1N sulfuric acid, and the absorbance at 475 nm (OD475) was measured.
Also, DMSO was added to a serial diluent prepared with the aforementioned A431 cell extract assay buffer (cell extract concentrations: 500 μg/mL, 50 μg/mL, 5 μg/mL, 0.5 μg/mL), to a final concentration of 5% without addition of the test compound, to obtain a mixture (solution for calibration curve). The solution for the calibration curve was subjected to the treatment of the same procedure described above, from seeding of the biotinylated heparan sulfate-immobilized plate, and the OD475 was measured. […]

Structures are written as SMILES.

`O=C1CCCN1CCO` [1-(2-Hydroxyethyl)-2-pyrrolidone, 1-(2-hydroxyethyl)-2-pyrrolidone]: the Heparanase inhibition rate (addition concentration 0.05%) turned out to be 99.00%.
As to `O=C1NCCN1CCO` [1-(2-Hydroxyethyl)-2-imidazolidinone, 1-(2-hydroxyethyl)-2-imidazolidinone], the Heparanase inhibition rate (addition concentration 0.05%) was found to be 99.40%.
Regarding `O=C1NCCN1` [2-Imidazolidinone, 2-imidazolidinone], where the note is “addition concentration 0.5%”, the Heparanase inhibition rate came out at 99.95%.
